Measurements: patent publication US9284308B2, “Methylene linked quinolinyl modulators of RORγt” (Janssen Pharmaceutica NV, priority 2013, dated 2016)

How the values were obtained:
[1] = biological target: T1, human RORγt ligand binding domain (RORγt LBD) (Homo sapiens, UniProt P51449); experiment: RORγt ThermoFluor assay (ligand binding affinity from protein thermal stability)
T1 construct: His-tag (N); TurboTEV protease cleavage site (ENLYFQG) (N); made in house; host or cells: E. coli (pHIS1, modified pET vector)
T1 sequence (P51449 with tags, fused parts or gaps): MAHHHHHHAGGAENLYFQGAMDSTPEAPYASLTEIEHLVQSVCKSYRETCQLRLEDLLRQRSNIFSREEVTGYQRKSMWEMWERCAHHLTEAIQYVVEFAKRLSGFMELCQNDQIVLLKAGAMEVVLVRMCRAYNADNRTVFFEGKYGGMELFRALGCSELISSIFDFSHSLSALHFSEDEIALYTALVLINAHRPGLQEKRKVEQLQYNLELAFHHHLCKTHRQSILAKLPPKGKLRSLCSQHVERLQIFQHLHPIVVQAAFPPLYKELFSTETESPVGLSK
Method: This approach is applicable to a wide variety of systems, and rigorous in theoretical interpretation through quantitation of equilibrium binding constants (KD).
The shift in the melting point described as a ΔTm is proportional to the concentration and affinity of the ligand.
RORγt ThermoFluor® Assay Construct
Protein and compound solutions are dispensed into black 384-well polypropylene PCR microplates (Abgene) and overlayed with silicone oil (1 μL, Fluka, type DC 200) to prevent evaporation.
Bar-coded assay plates are robotically loaded onto a thermostatically controlled PCR-type thermal block and then heated at a typical ramp-rate of 1° C./min for all experiments. Fluorescence was measured by continuous illumination with UV light (Hamamatsu LC6) supplied via fiber optic and filtered through a band-pass filter (380-400 nm; >6 OD cutoff). Fluorescence emission of the entire 384-well plate was detected by measuring light intensity using a CCD camera (Sensys, Roper Scientific) filtered to detect 500±25 nm, resulting in simultaneous and independent readings of all 384 wells. Images were collected at each temperature, and the sum of the pixel intensity in a given area of the assay plate was recorded versus temperature. Reference wells contained RORγt without compounds, and the assay conditions were as follows: • 0.065 mg/mL RORγt • 60 μM 1,8-ANS • 100 mM Hepes, pH 7.0 • 10 mM NaCl • 2.5 mM GSH • 0.002% Tween-20
Project compounds were arranged in a pre-dosed mother plate (Greiner Bio-one) wherein compounds are serially diluted in 100% DMSO by 1:2 from a high concentration of 10 mM over 12 columns within a series (column 12 is a reference well containing DMSO, no compound). The compounds were robotically dispensed directly into assay plates (1×=[…]) using a Hummingbird capillary liquid handling instrument (Digilab). Following compound dispense, protein and dye in buffer was added to achieve the final assay volume of 3 μL, followed by 1 μL of silicone oil.

[2] = test system: IL-17 production by CD4 T cells; experiment: Human Th17 assay; assay type: cell-based; conditions: Homo sapiens, CD4+ T, IL-17 production by human CD4 T cells
Method: The human Th17 assay tests the effect of RORγt modulatory compounds on IL-17 production by CD4 T cells under conditions which favor Th17 differentiation. Total CD4^+ T cells were isolated from the peripheral blood mononuclear cells (PBMC) of healthy donors using a CD4^+ T cell isolation kit II, following the manufacturer's instructions (Miltenyi Biotec). […] 50 μL of compound at titrated concentrations in DMSO were added into each well at final DMSO concentration at 0.2%. Cells were incubated for 1 hour, then 50 μL of Th17 cell differentiation medium was added to each well. The final concentrations of antibodies and cytokines (R&D Systems) in differentiation medium were: 3×10^6/mL anti-CD3/CD28 beads (prepared using human T cell activation/expansion kit, Miltenyi Biotec), 10 μg/mL anti-IL4, 10 μg/mL anti-IFNγ, 10 ng/mL IL1β, 10 ng/mL IL23, 50 ng/mL IL6, 3 ng/mL TGFβ and 20 U/mL IL2. Cells were cultured at 37° C. and 5% CO2 for 3 days. Supernatants were collected and the accumulated IL-17 in culture was measured by using MULTI-SPOT® Cytokine Plate following manufacture's instruction (Meso Scale Discovery). The plate was read using Sector Imager 6000, and IL-17 concentration was extrapolated from the standard curve. The IC50s were determined by GraphPad.

[3] = biological target: T2, human RORγt LBD (Homo sapiens, UniProt P51449); experiment: RORγt (LBD) reporter assay in HEK293T cells; assay type: cell-based; conditions: for RORγt (LBD) Reporter Assay, % inhibition @ 6 μM: 6 μM compound; for inhibition at 6 µM: HEK-293T, read-out: RORγt (LBD) Reporter Assay, % inhibition @ 6 μM, 6 μM compound
T2 construct: expressed in transfected cells; host or cells: HEK293T
T2 sequence (P51449 258-518): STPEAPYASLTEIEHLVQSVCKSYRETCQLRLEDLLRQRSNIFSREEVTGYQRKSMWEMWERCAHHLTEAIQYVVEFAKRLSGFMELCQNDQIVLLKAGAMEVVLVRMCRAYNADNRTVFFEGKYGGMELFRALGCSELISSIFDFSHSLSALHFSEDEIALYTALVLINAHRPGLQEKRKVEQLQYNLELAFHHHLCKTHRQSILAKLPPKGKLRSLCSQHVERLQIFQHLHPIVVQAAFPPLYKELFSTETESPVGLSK
Text: RORγt (LBD) Reporter Assay
Cells used in the assay were co-transfected with two constructs. The first construct, pBIND-RORγt LBD, contained the wild type human RORγt LBD fused to the DNA binding domain of the GAL4 protein. The second construct, pGL4.31 (Promega Cat no. C935A), contained multiple GAL4 responsive DNA elements upstream of firefly luciferase. […] The mutant construct was called pBIND-RORγt-AF2.
The pBIND vector contains the GAL4 DNA Binding Domain (GAL4 DBD) and the renilla luciferase gene under control of the SV40 promoter. Renilla luciferase expression serves as a control for transfection efficiency and cell viability.
The reporter assay was performed by transiently transfecting HEK293T cells with 5 μg of pBIND-RORγt LBD or pBIND-RORγt LBD-AF2 and 5 μg pGL4.31 (Promega Cat no. C935A) using Fugene 6 (Invitrogen Cat no. E2691) at a 1:6 ratio of DNA:Fugene 6 in a T-75 flask in which cells were at least 80% confluent. Twenty four hours after bulk transfection, cells were plated into 96-well plates at 50,000 cells/well in phenol-red free DMEM containing 5% Lipid Reduced FCS and Pen/Strep. Six hours after plating, cells were treated with compounds for 24 hours. Media was removed and cells were lysed with 50 μL 1× Glo Lysis Buffer (Promega). Dual Glo Luciferase Reagent (50 μL/well) was then added and firefly luciferase luminescence was read on an Envision after a ten minute incubation. Finally, Stop and Glo reagent (50 μL/well) was added and renilla luciferase luminescence was read on an Envision after a ten minute incubation. […] Agonist compounds increase RORγt-driven luciferase expression, and antagonist or inverse agonist compounds decrease luciferase expression.

SMILES	Kd [1]	IC50 [2]	IC50 [3]	RORγt (LBD) Reporter Assay, % inhibition @ 6 μM [3]	inhibition at 6 µM [3]
COc1nc2ccc(C(O)(c3ccc(Cl)cc3)c3cncn3C)cc2c(Cl)c1Cc1ccc(C(F)(F)F)nc1 (single isomer, unassigned) [Example 39c]	19 nM	37 nM	81 nM	98%	
COc1nc2ccc(C(O)(c3ccc(C)nc3C)c3cnnn3C)cc2c(Cl)c1Cc1ccc(F)cc1 (single isomer, unassigned) [Example 48c, (4-Chloro-3-(4-fluorobenzyl)-2-methoxyquinolin-6-yl)(2,6-dimethylpyridin-3-yl)(1-methyl-1H-1,2,3-triazol-5-yl)methanol]	0.3 nM	2.3 nM	~80 nM	63%	
COc1nc2ccc(C(O)(c3ccc(C(F)(F)F)cc3)c3cccnc3)cc2c(Cl)c1Cc1ccc(-n2cccn2)cc1 (single isomer, unassigned) [Example 162c]	4.1 nM	49 nM	98 nM	98%	
COc1nc2ccc(C(O)(c3ccc(Cl)cc3)c3cncn3C)cc2c(Cl)c1Cc1ccc(C(F)(F)F)nc1 (centres unmarked) [Example 39a]	66 nM	110 nM	72 nM		92%
COc1nc2ccc(C(O)(c3ccc(C(F)(F)F)cc3)c3cccnc3)cc2c(Cl)c1Cc1ccc(-n2cccn2)cc1 (centres unmarked) [Example 162a]	20 nM	250 nM	310 nM		90%
